Results from patent US20230075779A1, “METHODS AND COMPOSITIONS FOR TREATING CANCER OR VIRAL INFECTION WITH A PLA2G2D ANTAGONIST” (Apeximmune Therapeutics Inc., priority 2020, published 2023).
“Also recorded” adds a separate entry of the source.

Key:
[1] = target: T1, PLA2G2D (Homo sapiens, UniProt Q9UNK4); test: Reversal of PLA2G2D-Fc induced suppression of T cell proliferation in PBMC culture by sPLA2 inhibitor; format: cell-based; conditions: 0-25 μM inhibitor, PBMC culture with wild type PLA2G2D-Fc
T1 sequence (Q9UNK4 21-145): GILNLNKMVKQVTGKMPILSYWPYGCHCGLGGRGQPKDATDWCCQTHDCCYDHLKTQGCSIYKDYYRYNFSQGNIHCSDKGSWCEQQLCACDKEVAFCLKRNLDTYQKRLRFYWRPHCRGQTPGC

[2] = tested on: isolated T cells; test: Proliferation of isolated T cell cultures with anti-CD3/anti-CD28 stimulation; format: cell-based, human
Description: To evaluate the effect of PLA2G2D protein on isolated T cells, […] protein as well as with 1 μg/ml anti-CD3 (OKT3) and 0.2 μg/ml anti-CD28 (CD28.2) in 100 μl of PBS. The following day, plates were washed twice with PBS before addition of T cells. T cells were isolated from PBMC using a Pan T Cell Isolation Kit (Miltenyi) and labeled with CFSE as described above. 1×10^5 purified and labeled T cells were added to each well of the coated plate in a final volume of 200 μl RPMI. T cells were allowed to proliferate for 72 hours at 37° C. before supernatants were collected for IFNγ and IL-2 analysis by MSD and proliferation was analyzed by FACS.

[3] = tested on: PBMC derived CD4+ and CD8+ T cells; test: T cell proliferation (CFSE) in anti-CD3/anti-CD28 stimulated PBMC culture, soluble protein; format: cell-based, human; conditions: soluble protein 0-20 μg/ml, 72 hours
Description: The effect of human PLA2G2D-Fc on T cell activation was assessed in peripheral blood mononuclear cell (PBMC) or isolated T cell cultures. PBMC were isolated from leukoreduction system (LRS) chambers from healthy human donors by centrifugation over Ficoll-Paque Plus (GE Life Sciences) and labeled in a 5 μM CFSE solution (Molecular Probes) for 12 min at 37° C. and washed. 2×10^5 labeled PBMC per well of a 96 well round bottom plate were then stimulated with 1 μg/ml anti-CD3 (OKT3, Invitrogen) and 0.2 μg/ml anti-CD28 (CD28.2, Invitrogen) in the presence of soluble 0-20 μg/ml human PLA2G2D-Fc or control human IgG1-Fc protein (Sino Biological) as indicated in a final volume of 200 μl RPMI (Corning). PBMC cultures were incubated for 72 hours at 37° C. before the supernatants were harvested and measured for IFNγ and IL-2 levels using MSD V-plex assays (Meso Scale Discovery). T cell proliferation within the PBMC culture was simultaneously assessed by staining cells with fluorophore-conjugated anti-CD3, anti-CD4, and anti-CD8 antibodies (Biolegend) and Live/Dead Fixable dead cell stain (Molecular Probes), and running on a BD LSRFortessa X-20 flow cytometer (Becton Dickinson). FACS data was analyzed using FlowJo software. […]

[4] = tested on: primary human T cells; test: Binding of PLA2G2D-Fc to resting and activated primary human T cells (FACS); conditions: 0-10 μg/ml
Description: To determine whether PLA2G2D elicits immune suppression by directly binding to T cells in vitro, the level of PLA2G2D binding was assessed on resting and activated primary human T cells. T cells were isolated from PBMC using a Pan T Cell Isolation Kit (Miltenyi) and cultured in the presence or absence of beads loaded with anti-human CD2, CD3, and CD28 antibodies (human T Cell Activation/Expansion Kit, Miltenyi) in RPMI for 48 hours at 37° C. Stimulated or unstimulated T cells were then harvested, washed, and incubated with 0-10 μg/ml of human PLA2G2D-Fc protein or human IgG1-Fc protein for 30 minutes at 4° C. Cells were washed 3 times with PBS and then stained with Alexa 488-conjugated goat anti-human IgG1 antibodies (Invitrogen) for 30 minutes at 4° C., washed, then analyzed by FACS.

[5] = tested on: CD4+ and CD8+ T cells in PBMC cultures; test: T cell proliferation in stimulated PBMC culture, plate-immobilized protein; format: cell-based, human; conditions: immobilized protein coated at 0-10 μg/ml
Description: The effect of human PLA2G2D-Fc on T cell activation was assessed in peripheral blood mononuclear cell (PBMC) or isolated T cell cultures. […] PBMC cultures were incubated for 72 hours at 37° C. before the supernatants were harvested and measured for IFNγ and IL-2 levels using MSD V-plex assays (Meso Scale Discovery). T cell proliferation within the PBMC culture was simultaneously assessed by staining cells with fluorophore-conjugated anti-CD3, anti-CD4, and anti-CD8 antibodies (Biolegend) and Live/Dead Fixable dead cell stain (Molecular Probes), and running on a BD LSRFortessa X-20 flow cytometer (Becton Dickinson). FACS data was analyzed using FlowJo software.
To assess the effect of immobilized PLA2G2D protein on T cell proliferation in PBMC cultures, the same assay was utilized except 100 μl of 0-10 μg/ml human PLA2G2D-Fc or control human IgG1-Fc protein was coated overnight in PBS at 4° C. on 96-well flat bottom plates the day before PBMC were prepared and added along with anti-CD3 and anti-CD28 antibodies.

[6] = tested on: PBMC cultures; test: IFNγ and IL-2 levels in stimulated PBMC culture supernatants (MSD V-plex); format: cell-based, human; conditions: soluble protein 0-20 μg/ml, 72 hours
Description: The effect of human PLA2G2D-Fc on T cell activation was assessed in peripheral blood mononuclear cell (PBMC) or isolated T cell cultures. PBMC were isolated from leukoreduction system (LRS) chambers from healthy human donors by centrifugation over Ficoll-Paque Plus (GE Life Sciences) and labeled in a 5 μM CFSE solution (Molecular Probes) for 12 min at 37° C. and washed. 2×10^5 labeled PBMC per well of a 96 well round bottom plate were then stimulated with 1 μg/ml anti-CD3 (OKT3, Invitrogen) and 0.2 μg/ml anti-CD28 (CD28.2, Invitrogen) in the presence of soluble 0-20 μg/ml human PLA2G2D-Fc or control human IgG1-Fc protein (Sino Biological) as indicated in a final volume of 200 μl RPMI (Corning). PBMC cultures were incubated for 72 hours at 37° C. before the supernatants were harvested and measured for IFNγ and IL-2 levels using MSD V-plex assays (Meso Scale Discovery). T cell proliferation within the PBMC culture was simultaneously assessed by staining cells with fluorophore-conjugated anti-CD3, anti-CD4, and anti-CD8 antibodies (Biolegend) and Live/Dead Fixable dead cell stain (Molecular Probes), and running on a BD LSRFortessa X-20 flow cytometer (Becton Dickinson). FACS data was analyzed using FlowJo software.

Compound | reversal of immune suppression induced by PLA2G2D [1] | proliferation of isolated T cell cultures ([2]; immobilized protein coated at 0-10 μg/ml, 72 hours) | suppressive effect on isolated T cells ([2]; soluble protein added instead of coated (data not shown)) | CD4+ and CD8+ T cell proliferation [3] | CD4+ and CD8+ T cell proliferation ([3]; listed as PLA2G2D protein) | binding to activated CD4+ and CD8+ T cells ([4]; stimulated T cells, compared with control human IgG1-Fc) | binding to unstimulated T cells ([4]; unstimulated T cells) | CD4+ and CD8+ T cell proliferation [5] | CD4+ and CD8+ T cell proliferation ([5]; listed as PLA2G2D protein) | levels of IFNγ and IL-2 [6] | levels of IFNγ and IL-2 ([6]; listed as PLA2G2D protein)
CCc1c(C(=O)C(N)=O)c2c(OCC(=O)O)cccc2n1Cc1ccccc1 [LY315920] | does not rescue immune suppression; also recorded: does not reverse immune suppression | – | – | – | – | – | – | – | – | – | –
PLA2G2D-Fc: soluble human PLA2G2D-Fc protein (Sino Biological); the immunosuppressive protein studied | – | dose-dependently suppresses | no suppressive effect | dose-dependently suppresses; also recorded: dose dependently suppressed | dose-dependently suppresses | preferentially binds | to a small degree | suppressed | dose-dependently suppresses | dose-dependently and significantly decreased | dose-dependently suppresses
